Data from ChEMBL document CHEMBL1148897, “New natural products from the sponge-derived fungus Aspergillus niger” (J Nat Prod, 2004).
Activity calls are given as the source filed them. The calls are words filed in the database; no cut-off is given here.

Columns and labels:
[1] = test system: Artemia salina; test: Toxicity in Artemia salina at 10 ppm; type: organism-based; settings: in vivo
[2] = test system: Escherichia coli; test: Antimicrobial activity against Escherichia coli at 100 ug/disk after 24 hrs by agar plate diffusion assay; type: functional, organism-based
[3] = test system: Candida albicans; test: Antimicrobial activity against Candida albicans at 100 ug/disk after 24 hrs by agar plate diffusion assay; type: functional, organism-based
[4] = test system: Staphylococcus aureus; test: Antimicrobial activity against Staphylococcus aureus at 100 ug/disk after 24 hrs by agar plate diffusion assay; type: functional, organism-based
[5] = test system: Artemia salina; test: Toxicity in Artemia salina at 100 ppm; type: organism-based; settings: in vivo
[6] = test system: Bacillus subtilis; test: Antimicrobial activity against Bacillus subtilis at 50 ug/disk after 24 hrs by agar plate diffusion assay; type: functional, organism-based
[7] = test system: Staphylococcus aureus; test: Antimicrobial activity against Staphylococcus aureus at 50 ug/disk after 24 hrs by agar plate diffusion assay; type: functional, organism-based
[8] = test system: Candida albicans; test: Antimicrobial activity against Candida albicans at 50 ug/disk after 24 hrs by agar plate diffusion assay; type: functional, organism-based
[9] = test system: Bacillus subtilis; test: Antimicrobial activity against Bacillus subtilis at 1000 ug/disk after 24 hrs by agar plate diffusion assay; type: functional, organism-based
[10] = test system: Escherichia coli; test: Antimicrobial activity against Escherichia coli at 50 ug/disk after 24 hrs by agar plate diffusion assay; type: functional, organism-based
[11] = test system: Spodoptera littoralis; test: Insecticidal activity against Spodoptera littoralis larvae assessed as reduction of weight at 100 ppm in artificial diet after 7 days relative to control; type: functional; parameters: scale not given: the % may be the effect or the level left
[12] = test system: Spodoptera littoralis; test: Insecticidal activity against Spodoptera littoralis larvae assessed as survival rate at 100 ppm in artificial diet after 7 days relative to control; type: functional
[13] = test system: Cortical neurone; test: Neuroprotective activity in Wistar rat cortical neuron assessed as reduction of L-glutamic acid-induced intracellular calcium level at 1 ug/mL relative to control; type: functional; parameters: scale not given: the % may be the effect or the level left
[14] = test system: Cortical neurone; test: Neuroprotective activity in Wistar rat cortical neuron assessed as reduction of quisqualic acid-induced intracellular calcium level at 1 ug/mL relative to control; type: functional; parameters: scale not given: the % may be the effect or the level left
[15] = test system: Cortical neurone; test: Neuroprotective activity in Wistar rat cortical neuron assessed as reduction of L-glutamic acid-induced intracellular calcium level at 5 ug/mL relative to control; type: functional; parameters: scale not given: the % may be the effect or the level left
[16] = test system: Cortical neurone; test: Neuroprotective activity in Wistar rat cortical neuron assessed as reduction of quisqualic acid-induced intracellular calcium level at 5 ug/mL relative to control; type: functional; parameters: scale not given: the % may be the effect or the level left

Row | SMILES | Activity [1] | Activity [2] | Activity [3] | Activity [4] | Activity [5] | Activity [6] | Activity [7] | Activity [8] | Activity [9] | Activity [10] | Activity [11] | Activity [12] | Activity [13] | Activity [14] | Activity [15] | Activity [16]
1 | C/C=C/c1oc2c(O)c(OC)n(O)c2c(=O)c1O [PYRANONIGRIN C] | Non-toxic | inactive | inactive | inactive | Non-toxic | inactive | inactive | inactive | inactive | inactive |  |  |  |  |  | 
2 | C/C=C/c1oc2c(c(=O)c1O)N[C@H](O)C2=O [PYRANONIGRIN A] | Non-toxic | inactive | inactive | inactive | Non-toxic | inactive | inactive | inactive | inactive | inactive | 29% | 85% |  |  |  | 
3 | COc1cc([C@H](Cc2ccccc2)n2cc(C(N)=O)c(Cc3ccccc3)cc2=O)oc(=O)c1 [ASPERNIGRIN B] | Non-toxic | inactive | inactive | inactive | Non-toxic | inactive | inactive | inactive | inactive | inactive |  |  | 25.5% | 33.6% | 55% | 23.5%
4 | C/C=C/c1oc2c(OC)c(O)n(O)c2c(=O)c1O [PYRANONIGRIN B] | Non-toxic | inactive | inactive | inactive | Non-toxic | inactive | inactive | inactive | inactive | inactive |  |  |  |  |  | 
5 | COc1cc(C)c2c(OC)c(-c3c(O)c4c(C)cc(O)cc4oc3=O)c(=O)oc2c1 | Non-toxic | inactive | inactive | inactive | Non-toxic | inactive | inactive | inactive | inactive | inactive |  |  |  |  |  | 
6 | NC(=O)c1c[nH]c(=O)cc1Cc1ccccc1 [ASPERNIGRIN A] | Non-toxic | inactive | inactive | inactive | Non-toxic | inactive | inactive | inactive | inactive | inactive |  |  |  |  |  | 
